US20080213863A1, “Method of Controlling Viral Outbreak” (priority 2003, published 2008)

Tests used:
[1] = system: CD4; chemokine receptors; test: CD4 expression and antibody-mediated internalization of chemokine receptors; format: cell-based; conditions: treatment of the virus or cells
[2] = system: CD4+ HIV-susceptible target cells; test: Depletion of total cellular cholesterol by 2-OH-β-CD treatment; format: cell-based; conditions: 10 to 20 mM for 1 hour at 37° C., then washing
From the text: The role of lipid rafts in the HIV-1 fusion process was examined by treating CD4+ HIV-susceptible target cells with 2-OH-β-CD to deplete membrane cholesterol and disperse lipid rafts.

[3] = system: HIV-1; test: HIV-1-mediated syncytium formation; format: cell-based; conditions: treatment of target cells
[4] = system: HIV-1; test: HIV-1 binding to cells; format: cell-based; conditions: treatment of the virus or cells
From the text: (§1) As described above, budding of HIV-1 particles occurs at lipid rafts, which are characterized by a distinct lipid composition that includes high concentrations of cholesterol, sphingolipids, and glycolipids. Since cholesterol plays a key role in the entry of some other viruses, the role in HIV-1 entry of cholesterol and lipid rafts in the plasma membrane of susceptible cells was investigated. […] A β-CD derivative, 2-hydroxypropyl-β-cyclodextrin (2-OH-β-CD), was used to deplete cellular cholesterol and disperse lipid rafts. As disclosed herein, removal of cellular cholesterol rendered primary cells and cell lines highly resistant to HIV-1-mediated syncytium formation and to infection by both CXCR4- and CCR5-specific strains of HIV-1 virus. […] Cholesterol depletion also made cells resistant to SDF-1-induced binding to ICAM-1 through LFA-1.

[5] = system: Jurkat cells
[6] = system: HIV-1; test: Capture of HIV-1 by MAbs against host and viral proteins, measured as percentage of total p24; format: cell-based
From the text: By removing cholesterol, 2-OH-β-CD is believed to partially perturb organized lipid rafts, resulting in dispersal of their components (Ilangumaran and Hoessli, Biochem. J. 335:433-440, 1998).

[7] = system: LFA-1; test: SDF-1-induced binding of cells to ICAM-1 through LFA-1; format: cell-based; conditions: cholesterol-depleted cells
From the text: as §1

[8] = system: HIV-1; test: Infection of primary cells and cell lines by HIV-1 strains; format: cell-based; conditions: primary cells and cell lines treated
[9] = system: treated cells
[10] = after treating cells, percentage of total p24

Substance: 2-hydroxypropyl-β-cyclodextrin [2-OH-β-CD]
- CD4 expression [1]: no effect
- antibody-mediated internalization of chemokine receptors [1]: highly sensitive
- depletion of total cellular cholesterol [2]: greater than 70%
- syncytium formation of primary cells and cell lines [3]: blocked syncytium formation
- HIV-1 binding [4]: partially reduced
- Ca2+ flux responses to anti-CD3 MAb [5]: still showed Ca^2+ flux responses
- CD45 capture of HIV-1 ([6]; after treating cells): remained unaffected
- capture of HIV-1 by MAb against CD59 [6, 10]: decreased substantially
- capture of HIV-1 by MAb against gp41 [6, 10]: decreased substantially
- overall cellular release of p24 ([6]; after treatment): increased
- SDF-1-induced binding to ICAM-1 through LFA-1 [7]: resistant
- infection by CXCR4-specific and CCR5-specific HIV-1 strains [8]: rendered resistant
- cell growth after treatment [9]: continued to grow normally
